Each compound was assayed against HDAC8 WT (Homo sapiens, UniProt Q9BY41) (assay: Dilution/dialysis reversibility experiment). Details: 2000-fold dilution by overnight dialysis.
Type: biochemical

Row | reversibility of covalent binding | SMILES
1 | irreversible | C#Cc1ccc[n+](C)c1 [B6+]

What follows are compounds tested against T1, HDAC8 (Homo sapiens, UniProt Q9BY41) (assay: Kinetic parameters of inactivation from time-dependent IC50). Details: HDAC8, inactivation constant.
T1 construct: one additional N-terminal residue 'H' (His) (N)
T1 sequence (Q9BY41 1-377): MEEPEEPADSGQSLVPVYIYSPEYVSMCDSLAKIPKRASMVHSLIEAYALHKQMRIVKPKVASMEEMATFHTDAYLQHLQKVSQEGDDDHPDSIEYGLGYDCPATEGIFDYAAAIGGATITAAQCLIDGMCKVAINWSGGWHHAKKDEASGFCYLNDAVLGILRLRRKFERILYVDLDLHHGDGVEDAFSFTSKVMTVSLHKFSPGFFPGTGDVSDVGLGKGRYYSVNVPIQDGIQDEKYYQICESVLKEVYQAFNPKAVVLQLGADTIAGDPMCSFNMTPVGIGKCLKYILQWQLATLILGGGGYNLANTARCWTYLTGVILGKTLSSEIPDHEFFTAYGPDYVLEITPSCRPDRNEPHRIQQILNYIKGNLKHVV
Type: biochemical
Method: Time-dependent IC50 values were obtained using the previously described enzyme activity assay after varying preincubation times.

Row | Ki [µM] | SMILES
2 | 0.8 | C#Cc1ccc[n+](C)c1 [B6+]

These compounds were tested on THP-1 cells (assay: CellTiter-Blue cell viability assay). Details: Homo sapiens, 72 h, Figure 7A, read-out: cell viability IC50, THP-1.
Type: cell-based
Method: All cell lines were purchased from DSMZ (Braunschweig, Germany). The cell lines were regularly tested to exclude mycoplasma contamination and authenticated. […] Media were supplemented with 10% fetal calf serum (FCS), 10 units/mL penicillin, 10 μg/mL streptomycin, and 2 mM L-glutamine (all Gibco, Thermo Fisher Scientific).
To determine the IC50 of the selected compounds on the cell lines, the CellTiter-Blue cell viability assay (Promega) was performed. For this, cells were seeded in 96-well flat-bottom plates at a cell density of 10 000 cells/well. Cells were treated in triplicate with the compound of interest at various concentrations or with 10 μM Bortezomib (S1013; Selleck Chemicals, Houston, TX), as a positive control. […] Plates were measured using a GloMax plate reader (Promega), and IC50 values were determined by nonlinear regression using GraphPad Prism version 9.1.1 (GraphPad Software, Inc.), and the data are reported as mean values ± the standard error of the mean.

Row | IC50 [µM] | SMILES
3 | > 500 | C#Cc1cnccc1NC(=O)CC(=O)N1Cc2ccccc2C1 [compound 11, N-(3-Ethynylpyridin-4-yl)-3-(isoindolin-2-yl)-3-oxopropanamide]

Each compound was assayed on GSH (glutathione) (assay: physchem). Details: PBS buffer with 5 mM glutathione (GSH), pH 7.4.
Method: The AUC (area under the curve) values were determined via integration of HPLC or MS chromatograms and then corrected with the internal standard. The fragments’ AUC values were subjected to ordinary least-squares (OLS) linear regression, and to compute the important parameters (kinetic rate constant and half-life time), an Excel sheet was applied. The data are expressed as means of duplicate determinations. The kinetic rate constant for the degradation and corrected GSH reactivity were calculated as follows. The reaction half-life for pseudo-first-order reactions (t1/2) is ln 2/k, where k is the reaction rate. In the case of competing reactions (reaction with GSH and degradation), the apparent reaction rate is kapp = kdeg + kGSH. When half-lives are measured experimentally, t1/2(app) = ln 2/(kapp) = ln 2/(kdeg + kGSH). In our case, the corrected kdeg and kapp (regarding blank and GSH-containing samples, respectively) can be calculated by linear regression of the measured kinetic data points. The corrected kGSH is calculated as kapp – kdeg, and finally, the half-life is determined using the equation t1/2 = ln 2/k.

Row | half-life at 250 μM [h] | SMILES
4 | 0.16 | Ic1ncc[nH]1 [H3]
5 | > 48 | Brc1cn[nH]c1 [L2]
6 | > 48 | Brc1nccs1 [R2]
7 | > 48 | Clc1c[nH]cn1 [J1]
8 | > 48 | Brc1c[nH]cn1 [J2]
9 | > 48 | Ic1cn[nH]c1 [L3]
10 | > 48 | Clc1ncc[nH]1 [H1]
11 | > 48 | Clc1cn[nH]c1 [L1]
12 | > 48 | Ic1c[nH]cn1 [J3]
13 | 0.23 | Ic1ncco1 [N3]
14 | > 48 | Brc1ncc[nH]1 [H2]
15 | > 48 | Brc1cncs1 [Q2]
16 | > 48 | Ic1ccn[nH]1 [K3]
17 | > 48 | Brc1ccn[nH]1 [K2]

Same assay, conditions: buffer, pH 7.4

Row | SMILES | half-life at 250 μM [h]
18 | Cn1cc[n+](C)c1C#N [H4+] | > 48
19 | N#Cc1ccccn1 [A4] | > 48

These compounds were tested on SMC3 acetylation (assay: Western blot (immunoblot) in OCI-AML3 cells). Details: 72 h treatment.
Type: cell-based
Method: Cells (2 ×10^6) were seeded in 2 mL of medium in a six-well plate (Greiner) and treated with the desired concentration of the compounds. […] Protein concentrations were determined by the Bradford protein assay. Thirty micrograms of cell lysates per treatment was fractionated on sodium dodecyl sulfate–polyacrylamide gels and transferred to nitrocellulose membranes (Cytiva).

Row | SMILES | effect on HDAC8 levels
20 | C#Cc1ccc[n+](C)c1 [B6+] | not influencing HDAC8 levels

These compounds were tested on HL60 cells (assay: CellTiter-Blue cell viability assay). Details: Homo sapiens, HL-60; 72 h, Figure 7A.
Type: cell-based
Method: All cell lines were purchased from DSMZ (Braunschweig, Germany). The cell lines were regularly tested to exclude mycoplasma contamination and authenticated. Cell lines were grown at 37 °C and 5% CO2 in RPMI 1640 medium (Gibco, Thermo Fisher Scientific). Media were supplemented with 10% fetal calf serum (FCS), 10 units/mL penicillin, 10 μg/mL streptomycin, and 2 mM L-glutamine (all Gibco, Thermo Fisher Scientific).
To determine the IC50 of the selected compounds on the cell lines, the CellTiter-Blue cell viability assay (Promega) was performed. For this, cells were seeded in 96-well flat-bottom plates at a cell density of 10 000 cells/well. Cells were treated in triplicate with the compound of interest at various concentrations or with 10 μM Bortezomib (S1013; Selleck Chemicals, Houston, TX), as a positive control. The cell viability of treated cell lines was measured using CellTiter-Blue after incubation for 72 h. Plates were measured using a GloMax plate reader (Promega), and IC50 values were determined by nonlinear regression using GraphPad Prism version 9.1.1 (GraphPad Software, Inc.), and the data are reported as mean values ± the standard error of the mean.

Row | IC50 [µM] | SMILES
21 | > 500 | C#Cc1cnccc1NC(=O)CC(=O)N1Cc2ccccc2C1 [compound 11, N-(3-Ethynylpyridin-4-yl)-3-(isoindolin-2-yl)-3-oxopropanamide]

Source: PMC10788917 (Journal of Medicinal Chemistry, 2023)
